Test results taken from patent US6399828B1, “Preparation of amphetamines from phenylpropanolamines” (Boehringer Ingelheim Chemicals, Inc., priority 2001, dated 2002).

Columns and labels:
[1] = Stability of O-acetylnorephedrine hydrochloride stirred with water (rearrangement to N-acetylnorephedrine), HPLC analyses; assay type: physicochemical
Experimental: Ammonium formate appears to catalyze the rearrangement of O-acetylnorephedrine hydrochloride to N-acetylnorephedrine. Three samples of O-acetylnorephedrine hydrochloride (Experiment Z recrystallized) were stirred with water for six hours respectively at room temperature, at 60° C., and at 60° C. with ammonium formate added. Samples were taken at intervals for HPLC analyses. […] At 60° C., the percentage of O-acetylnorephedrine hydrochloride decreased from 99.18 to 97.79 with the percentage of N-acetylnorephedrine increasing from 0.21% to 1.1% over a 6 hour period. […] The catalytic hydrogenation route therefore appears to be preferable to catalytic transfer hydrogenation in view of the induction period, gas evolution, and rearrangement potential.

[2] = Solubility of O-acetylnorephedrine hydrochloride in water (Experiment X)

With CC(=O)OC(c1ccccc1)C(C)N.Cl (stereo not shown) [O-acetylnorephedrine hydrochloride, 2-Amino-1-acetoxy1-phenylpropane Hydrochloride] the “percentage of O-acetylnorephedrine hydrochloride” value (shortened to “percentage”) ([1]; water with ammonium formate, 60° C., by 6 hours) was 77.20%, the “percentage” value ([1]; water with ammonium formate, 60° C., within 30 minutes) was 91.23% and the “percentage” value ([1]; water, 60° C., after 6 hours) was 97.79%. The “percentage” value ([1]; water, 60° C., start) was 99.18%, the “percentage” value ([1]; water, room temperature, after 6 hours) was 99.12% and the “percentage” value ([1]; water, room temperature, start) was 99.30%. It also gave a solubility in water [2] of 5.5 mL/g.
